From patent US9771430B2, “Method of treating a metabolic disorder induced by obesity in a subject in need thereof by administering MK2/3 inhibitors” (THE TRUSTEES OF COLUMBIA UNIVERSITY IN THE CITY OF NEW YORK, priority 2011, dated 2017)

How the values were obtained:
IP3R = IP3R activity in FAO hepatocytes (Inositol/ATP-induced calcium release assay); assay type: cell-based, rat
Description: FIGS. 49A-S. The role of IP3R in forskolin/glucagon-induced G6Pase/PEPCK in cultured hepatocytes and in fasting blood glucose in vivo. FIG. 49 A,B. FSK-Induced G6Pase and PEPCK is Calcium-Dependent. FIG. 49C-D. IP3R Activity is Required for Forskolin- and Glucagon-Induced G6Pase and PEPCK (FAO rat hepatocyte cell line). FIG. 49E-F. IP3R Activity is Required for Forskolin-Induced G6Pase and PEPCK (primary murine hepatocytes). FIG. 49G-H. IP3R1 Anti-Sense Oligonucleotide Suppresses Forskolin-Induced G6Pase and PEPCK (primary murine hepatocytes). FIG. 49I. Forskolin Activates IP3R Activity in FAO Hepatocytes (Inositol/ATP-Induced Calcium Release Assay). FIG. 49J. The PKA Inhibitor H89 Suppresses Forskolin-Induced IP3R Activation. FIG. 49K-L. IP3R Activity is Required for Forskolin-Induced PGC1a. FIG. 49M-N. Calcineurin Inhibitory Peptide Suppresses Forskolin-Induced G6Pase and PEPCK. FIG. 49O. IP3R Activity is Required for Forskolin-Induced Calcineurin Activation. FIG. 49P-Q. IP3R Activity is Required for Forskolin-Induced TORC2 Dephosphorylation and Nuclear Localization. FIG. 49R. TORC2 Transduction Partially Restores Forskolin-Induced G6Pase in IP3R-Inhibited Hepatocytes. FIG. 49S. Xestospongin C Treatment Reduces Fasting Glucose Levels in C57BL/6J Mice.

CaMKII = assay type: cell-based, mouse
Description: FIG. 1A. CaMKII enzyme activity was assayed in triplicate wells of primary mouse HCs stimulated with 100 nM glucagon (Gluc) or vehicle control (Veh) for the indicated times (*P<0.05 and **P<0.01 vs. Veh; mean±S.E.M.). FIGS. 1B-1J. Extracts of HCs or liver were probed for phospho-CaMKII, total CaMKII, and β-actin by immunoblot assay. FIG. 1B. HCs were incubated with […] glucagon for the indicated times; FIG. 1C. Glucagon was added to HCs that were pre-treated for 1 h with vehicle control (Veh) or 5 μM BAPTA-AM; FIG. 1D. Glucagon was added to HCs that were pre-treated with 0.5 μM xestospongin (XesC) or to HCs from Ip3r1fl/fl mice transduced with adeno-LacZ control or adeno-Cre (bar graph=Ip3r1 mRNA levels); FIG. 1E. Glucagon was added to HCs that were pre-treated for 1 h with vehicle control (Veh) or 10 μM H89. FIG. 1F. […] FIGS. 1G-1J. In vivo experiments. In FIG. 1G, mice were treated for 30 min with 200 μg kg−1 body weight of glucagon i.p., and in FIG. 1H, mice were pre-treated with 10 pmol g−1 xestospongin C or vehicle control i.p. 4 days prior to glucagon treatment. In FIGS. 1I-1J, mice were fed ad libitum or fasted for 12 h, or fasted for 12 h and then re-fed for 4 h.
Total RNA was extracted from hepatocytes using the RNeasy kit (Qiagen). cDNA was synthesized from 2 μg total RNA using oligo (dT) and Superscript II (Invitrogen). Real-time qPCR analysis and western blotting were performed as previously described (Timmins et al., 2009). Nuclear extraction from liver was performed using the Nuclear Extraction Kit from Panomics according to the manufacturer's instructions.
Immunoblot and RT-qPCR assays were performed as previously described (Timmins et al., 2009). Total RNA was extracted from HCs using the RNeasy kit (Qiagen). cDNA was synthesized from 2 μg total RNA using oligo (dT) and Superscript II (Invitrogen). Nuclear extraction from liver was performed using the Nuclear Extraction Kit from Panomics according to the manufacturer's instructions.

cytosolic free calcium = test: Calcium mobilization in primary hepatocytes (Fura-2 imaging); assay type: cell-based, mouse; settings: co-/pre-treatment with inhibitor
Description: Mouse primary hepatocytes were plated on glass coverslips and loaded with 5 μM Fura-2 acetoxymethyl ester (Molecular Probes) in the presence of 0.025% (w/v) pluronic F127 (Sigma-Aldrich) in Media 199 (Mediatech) for 30 minutes. […] The ratio of fluorescence intensity at the two excitation wavelengths was calculated after subtracting background fluorescence. [Ca2+]I (cytosolic free calcium concentration) was calculated using a Fura-2 calcium imaging calibration kit (Invitrogen). Images were collected and analyzed using the MetaFluor software package (Universal Imaging Corp.). Graphs represent average responses from groups of 30-40 individual cells from representative single experiments. Bar graphs represent average responses (fold over average baseline) from 150-200 cells per condition. All experiments were repeated at least three times with similar results.

dach1 and dach2 mRNA = dach1 and dach2 mRNA in primary mouse hepatocytes; assay type: cell-based; settings: WT HCs, 0.5 mM, 6 h
Description: FIG. 115. Palmitate induces dach1 and dach2 mRNA levels. Primary HCs from WT mice were treated with 0.5 mM palmitate for 6 h. RNA was assayed for dach1 and dach2 mRNA by RT-qPCR (*p<0.05; mean±S.E.M.).

Akt = test: Insulin-induced Akt phosphorylation in palmitate-treated primary mouse hepatocytes; assay type: cell-based; settings: HCs with normal p38 (Ad-LacZ)
Description: FIGS. 92A-D. Inhibition of CaMKII or p38α Improves Insulin-induced Akt Phosphorylation in Palmitate-treated Primary Hepatocytes. FIG. 92A. Primary HCs from WT mice were transduced with adeno-LacZ or -K43A-CaMKII at an MOI of 10 and then 24 h later incubated with either BSA control or 0.2 mM palmitate for 19 h, with the last 5 h in serum-free media. The cells were then treated with 100 nM insulin or vehicle control for 5 min, and lysates were probed for p-Akt, total Akt, and β-actin by immunoblot (left panel) or immunoprecipitated for IRS-1 and then assayed by immunoblot for the total level of IRS-1 or for phospho-Tyr (PY) (right panel). FIG. 92B. HCs from Mapk14^fl/fl mice were transduced with adeno-LacZ or -Cre and 24 h later incubated with palmitate and then insulin as in FIG. 92A. Lysates were probed for p-Akt, total Akt, β-actin (upper panel), p-GSK3β, total GSK3β, p-FoxO1 and total FoxO1 by immunoblot or immunoprecipitated for IR and IRS-1 and then assayed by immunoblot for the total level of the respective proteins or for phospho-Tyr (lower panel). FIG. 92C. Primary human HCs (metabolism-controlled) were transduced with adeno-LacZ or -K43A-CaMKII at an MOI of 30 and then 36 h later incubated with either BSA control or 0.2 mM palmitate for 10 h, with the last 5 h in serum-free media. […]

TRB3 = TRB3 levels in primary mouse hepatocytes; assay type: cell-based; settings: control HCs
Description: FIGS. 93A-E: Improvement in Insulin-induced Akt Phosphorylation and Glucose Homeostasis by CaMKII Deficiency are Abrogated by Restoring TRB3. FIG. 93A. HCs from Camk2g^fl/fl mice were transduced with adeno-LacZ or -Cre and then 24 h later incubated with BSA or palmitate (0.2 mM) for 19 h. Lysates were immunoblotted for TRB3 and β-actin. FIG. 93B. TRB3 and β-actin were probed in livers from DIO WT mice, Camk2g^−/− mice, or Camk2g^fl/fl mice treated with TBG-LacZ or TBG-Cre. Densitometric quantification of the immunoblot data is shown in the graph (*p<0.05; mean±S.E.M.). FIGS. 93C-E. DIO Camk2g^fl/fl mice were treated with TBG-Cre or TBG-LacZ, and five days later, half of the […] received adeno-TRB3, while the other half received adeno-LacZ control. Livers were assayed for p-Akt, total Aid, TRB3 and β-actin by immunoblotting after fasting the mice for 16 h and then re-feeding them for 4 h. 5 h fasting and fasted-refed blood glucose and plasma insulin were assayed after 4 weeks of treatment (Differing symbols indicate p<0.05; mean±S.E.M.). See also FIG. 99.

ATF4 = test: Nuclear ATF4 in primary mouse hepatocytes; assay type: cell-based; settings: control HCs
Description: FIGS. 94A-F: Improvement in Insulin-induced Akt Phosphorylation and Glucose Homeostasis by CaMKII Deficiency are Abrogated by Restoring ATF4. FIG. 94A. HCs from Camk2g^fl/fl mice were transduced with adeno-LacZ or -Cre. 24 h later, cells were incubated with tunicamycin (0.5 μg/ml) or vehicle control for 4 h. Nuclear lysates were immunoblotted for ATF4 and nucleophosmin (Np) as a loading control. FIG. 94B. Nuclear ATF4 and nucleophosmin (Np) were probed in livers from DIO Camk2g^fl/fl mice treated with TBG-Cre or TBG-LacZ or ob/ob mice treated with adeno-LacZ or -K43A-CaMKII. FIG. 94C. HCs from […] were transduced with adeno-LacZ or -Cre and then 4 h later, half of the adeno-Cre transduced cells received adeno-ATF4, while the other half received adeno-LacZ control. After 24 h, the cells were incubated with palmitate and then insulin-induced p-Akt was assayed as in FIG. 92. FIG. 94D. As in FIG. 94C, except that Trb3 mRNA was assayed by RT-qPCR (Bars with different symbols are different from each other and control, p<0.01; mean±S.E.M.). […] Livers were assayed for p-Akt, total Aid, β-actin and nuclear ATF4 and nucleophosmin (Np) by immunoblotting after insulin injection through portal vein. 5 h fasting blood glucose and plasma insulin were assayed after three weeks of treatment (Differing symbols indicate p<0.05; mean±S.E.M.). See also FIG. 100.

Cl.Cl.O=S(=O)(NCCNCC=Cc1ccc(Br)cc1)c1cccc2cnccc12 [H89, N-[2-[[3-(4-Bromophenyl)-2-propenyl]amino]ethyl]-5-isoquinolinesulfonamide dihydrochloride]
Forskolin-Induced IP3R Activation (IP3R): Suppresses
glucagon-induced CaMKII phosphorylation (CaMKII; HCs pre-treated with inhibitor, then glucagon): markedly inhibited
cytosolic calcium mobilization in response to glucagon (and forskolin) (cytosolic free calcium): partially reversed

CCCCCCCCCCCCCCCC(=O)O [palmitate]
dach1 and dach2 mRNA levels (dach1 and dach2 mRNA): induces
insulin-induced p-Akt signal (Akt): lowered
TRB3 levels (TRB3): increase
p-CaMKIIγ in HCs (CaMKII; ER stress activation): increased

tunicamycin
ATF4 (ATF4): increased
